System: saquinavir antiserum
Experiment: Assay specificity determination: competitive microtiter plate ELISA with saquinavir-BSA coated plate and saquinavir antiserum
Format: binding, sheep
Conditions: for dose-response of optical density at 450 nm (competition for antiserum binding): serial three-fold dilutions of drug in PBS-TWEEN, antiserum 1:12,800, 62.5 ng/ml saquinavir-BSA coat
Procedure: Corning micro-ELISA plates (96 wells) were used throughout. The saquinavir-BSA conjugate was diluted to 2 μg/ml in 0.1 M sodium carbonate buffer, pH 9.5. One hundred microliters of the buffer was placed in the wells of each row of the plate except the first row. The first row was filled with 200 μL of the 2 μg/ml saquinavir-BSA solution, and a twelve-tip micropipettor was used to transfer 100 μl from the first row to the second row of all columns at the same time. Mixing of contents of the second row was accomplished by re-pipetting 3 times. One hundred microliters from the second row was then transferred to the third row and mixed. This was repeated to the last row of the plate. After mixing, 100 μl was removed from the last row and discarded. The plate was placed in a humidified Zip-Loc bag and incubated for 1 hour at 37° C. After incubation, the plate was removed from the incubator and bag and emptied into a waste container. PostCoat solution was added to each well in the amount of 200 μl. This solution consisted of 1% gelatin hydrolysate, 2% sucrose, 0.15 M Tris, pH 7.4, 0.17% TWEEN 20 (ICI Americas Inc.), and 0.02% Thimerosal preservative. All reagents were from Sigma Chemicals. The plate was returned to the humidified bag and placed in the incubator for 1 hour. Five minutes before the incubation was complete, Zymed rabbit anti-sheep IgG-HRP conjugate was diluted 1:2000 in PBS-TWEEN and vortexed gently to completely mix. Upon completion of the hour incubation, the plate was washed 4 times with 300 μl of PBS-TWEEN using a BioTek Instruments, Inc. EL404 plate washer. One hundred microliters of the diluted rabbit anti-sheep IgG-HRP conjugate was then pipetted into each well, the plate re-bagged and incubated for 1 hour. At the completion of the hour, the plate was removed from the incubator and bag and washed six times on the plate washer. One hundred microliters of K-BLUE enzyme substrate (Neogen, Inc.) was then added to each well and color allowed to develop in the dark for 5 minutes. Color development was halted by the addition of 100 μl of 1 N hydrochloric acid to each well. The optical density of each well was measured at two wavelengths, 405 nm and 450 nm using a Molecular Devices, Inc. ThermoMax plate reader. […] Therefore, the OD405 measurements were used to calculate the extrapolated OD450 by the well-known method of using a linear least squares regression of readings at both wavelengths. An ELISA plate was coated with the above concentrations of saquinavir-BSA using the same conditions as set forth above. While the plates were being PostCoated, serial three-fold dilutions of saquinavir, ritonavir, indinavir, and nelfinavir were prepared in a 1 ml capacity 96-well plate. All drugs were prepared at 1 mg/ml in absolute methanol and stored at 4° C. until used. […]

Row | dose-response of optical density at 450 nm (competition for antiserum binding) | Compound | cross-reaction of the antiserum (relative to saquinavir, calculated from OD450 dose-response data) | inhibition with respect to zero drug (lowest non-zero drug concentration in Example 5 (7 dilution steps))
1 | lesser response | Cc1c(O)cccc1C(=O)N[C@@H](CSc1ccccc1)[C@H](O)CN1C[C@H]2CCCC[C@H]2C[C@H]1C(=O)NC(C)(C)C [nelfinavir] | 0.4% | –
2 | dose-response curve | CC(C)(C)NC(=O)[C@@H]1C[C@@H]2CCCC[C@@H]2CN1C[C@@H](O)[C@H](Cc1ccccc1)NC(=O)[C@H](CC(N)=O)NC(=O)c1ccc2ccccc2n1 [saquinavir] | – | ~50%

Reference: patent US20070148684A1, “IMMUNOASSAY FOR HIV PROTEASE INHIBITORS” (priority 2000, published 2007)
